Laboratory results: paper PMC6753678, “Fueling Open Innovation for Malaria Transmission-Blocking Drugs: Hundreds of Molecules Targeting Early Parasite Mosquito Stages” (Frontiers in Microbiology, 2019)
Where two headings read alike, the source gives them in different places.

How the values were obtained:
[1] = tested on: P. falciparum female gametocytes; set-up: method as in Miguel-Blanco et al 2017; details: ref Miguel-Blanco et al 2017, read-out: Pf FGAA IC50, cited from earlier work
HepG2 cells [2] = details: HepG2 value reported with Pf FGAA screen; ref Miguel-Blanco et al 2017; cited from earlier work
[3] = tested on: P. falciparum female gametocytes; assay: P. falciparum female gametogenesis assay (Pf FGAA); details: 1: YES, 0: NO
HepG2 cells [4] = assay: HepG2 cytotoxicity assay; details: unified HepG2 cytotoxicity across the three screens
How it was run: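 Cells at 2,500 per well in MEM with 10% fetal bovine serum and 1% NEAA were exposed to test compounds for 48 h at 37°C, 5% CO2. Viability was read by fluorescence, with percent inhibition calculated against 50 μM doxorubicin (positive) and DMSO (negative) controls.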

[5] = >10-fold selectivity over cytotox

Row | SMILES | IC50 ([1]; TCAMS library screen) [µM] | HepG2 cytoxicity (Pf FGAA screen) (HepG2 cells [2]) [µM] | Is compound selective in assay? Pf FGAA active? [3] | Unified cytotox (HepG2 cells [4]) [µM] | IC50 [1] [µM] | Is compound selective in assay? Pf FGAA active? [3, 5]
1 | CCCC(=O)NC(c1ccc(C)cc1)c1ccc2cccnc2c1O (stereo not drawn) [TCMDC-123605] | 1.73 | 9.22 | 0 (0: NO) |  |  | 
2 | Cc1ccc(-c2nc3cc(NC(=O)c4ccc([N+](=O)[O-])o4)ccc3o2)cc1Cl [TCMDC-123657] | 1.35 | 1.72 | 0 (0: NO) |  |  | 
3 | Cc1ccnc(NC(c2ccc(Cl)c([N+](=O)[O-])c2)c2ccc3cccnc3c2O)c1 (stereo not drawn) [TCMDC-123691] | 1.48 | 23.45 | 1 (1: YES) |  |  | 
4 | N#CC(c1ccc(Br)cc1)c1ccc2c(C(F)(F)F)cc(C(F)(F)F)nc2n1 (stereo not drawn) [TCMDC-123754] | 1.16 | 2.32 | 0 (0: NO) |  |  | 
5 | FC(F)(F)c1cnc(Sc2nnc(-c3ccncc3)o2)c(Cl)c1 [TCMDC-123767] | 0.16 | >100 | 1 (1: YES) |  |  | 
6 | OC1CCN(c2cc(-c3ccccn3)nc(-c3ccccn3)n2)CC1 [TCMDC-123786] | 1.54 | 14.14 | 0 (0: NO) |  |  | 
7 | COc1ccc(-c2csc3ncnc(Cl)c23)cc1 [TCMDC-123805] | 1.46 | 0.55 | 0 (0: NO) |  |  | 
8 | Clc1ccc(-c2csc3ncnc(Cl)c23)cc1 [TCMDC-123811] | 1.57 | 94.46 | 1 (1: YES) |  |  | 
9 | CN(C)CCOc1ccc(NC(=O)NC(C)(C)c2nc(-c3ccc(Cl)c(O)c3)c(-c3ccncc3)[nH]2)cc1.Cl [TCMDC-140744] |  |  |  | 14.30 | 0.73 | 1 (1: YES)
10 | CNCC(C)(C)c1nc(-c2ccc(Cl)c(O)c2)c(-c2ccncc2)[nH]1.Cl [TCMDC-140762] |  |  |  | 13.52 | 0.88 | 1 (1: YES)
11 | CC(C)(C)c1ccc(CNC(=O)/C=C/c2ccc(CNC3CCNCC3)cc2)cc1 [TCMDC-140773] |  |  |  | 9.47 | 1.92 | 0 (0: NO)
12 | CC(C)(C)c1ccc(CNC(=O)c2cc(CNC3CCNCC3)ccc2O)cc1 [TCMDC-140775] |  |  |  | 13.96 | 2 | 0 (0: NO)
13 | CC(C)(C)c1ccc(CNC(=O)c2ccc(CNC3CCC(N)CC3)s2)cc1 (stereo not drawn) [TCMDC-140777] |  |  |  | 8.95 | 2.44 | 0 (0: NO)
14 | CC(C)(CNC(=O)[C@H]1CCCN1)c1nc(-c2ccc(Cl)c(O)c2)c(-c2ccncc2)[nH]1.Cl [TCMDC-141060] |  |  |  | 32.74 | 1.21 | 1 (1: YES)
15 | CC(C)(CNC(=O)[C@@H]1CCCCN1)c1nc(-c2ccc(Cl)c(O)c2)c(-c2ccncc2)[nH]1.Cl [TCMDC-141079] |  |  |  | 38.91 | 1.58 | 1 (1: YES)
16 | CC1(CCN2CCC(c3c[nH]c4cnccc34)CC2)CCCc2c(Br)cccc2C1=O.Cl (stereo not drawn) [TCMDC-141171] |  |  |  | 5.25 | 1.73 | 0 (0: NO)
17 | CN1CCN(c2ccc(Nc3ncc([N+](=O)[O-])c(Nc4ccccc4O)n3)cc2)CC1.O=C(O)C(F)(F)F [TCMDC-141372] |  |  |  | 1.82 | 2.01 | 0 (0: NO)

Row | SMILES | IC50 ([1]; TCAMS library screen) [µM] | HepG2 cytoxicity (Pf FGAA screen) (HepG2 cells [2]) [µM] | Is compound selective in assay? Pf FGAA active? [3] | Unified cytotox (HepG2 cells [4]) [µM] | IC50 [1] [µM] | Is compound selective in assay? Pf FGAA active? [3, 5]
18 | O=C(CCC1CCCC1)N(Cc1ccc(-c2ccc(CNCCc3ccccc3)cc2)cc1)C1CCCNC1.O=C(O)C(F)(F)F (stereo not drawn) [TCMDC-141444] |  |  |  | 5.19 | 1.98 | 0 (0: NO)
19 | CN1CCCC1CCNc1ncc2c(-c3ccc(NC(=O)Nc4cc(C(F)(F)F)ccc4F)c(F)c3)nn(C)c2n1.O=C(O)C(F)(F)F (stereo not drawn) [TCMDC-141610] |  |  |  | 4.62 | 1.47 | 0 (0: NO)
20 | CN1CCN(CCCNc2ncc3c(-c4ccc(NC(=O)Nc5cc(C(F)(F)F)ccc5F)c(F)c4)nn(C)c3n2)CC1.O=C(O)C(F)(F)F [TCMDC-141611] |  |  |  | 4.90 | 0.87 | 0 (0: NO)
21 | Cc1ccc(Cn2nc(Cl)c(N3CCCNCC3)cc2=O)cc1NC(=O)Nc1ccc(-c2ccccc2)cc1.O=C(O)C(F)(F)F [TCMDC-141697] |  |  |  | 7.25 | 0.99 | 0 (0: NO)
22 | Cc1ccc(Cn2nc(Cl)c(N3CCNCC3)cc2=O)cc1NC(=O)Nc1ccc(-c2ccccc2)cc1.O=C(O)C(F)(F)F [TCMDC-141698] |  |  |  | 4.79 | 0.44 | 1 (1: YES)
23 | Cc1c(Cn2nc(Cl)c(N3CCNCC3)cc2=O)cccc1NC(=O)Nc1ccc(-c2ccccc2)cc1.O=C(O)C(F)(F)F [TCMDC-141699] |  |  |  | 4.22 | 4.91 | 0 (0: NO)
24 | Cl.O=S(=O)(Nc1cc2c(cc1OCCCN1CCCCC1)CCNCC2)c1ccc(-c2ccc(Cl)cc2)cc1 [TCMDC-141753] |  |  |  | 4.37 | 2 | 0 (0: NO)
25 | CN1CCc2cc(NS(=O)(=O)c3ccc(-c4ccc(Cl)cc4)cc3)c(OCCCN3CCCCC3)cc2CC1.Cl [TCMDC-141754] |  |  |  | 2.23 | 0.97 | 0 (0: NO)
26 | Cc1ccc(Cn2ncc(N3CCCNCC3)c(Cl)c2=O)cc1NC(=O)Nc1ccc(-c2ccccc2)cc1 [TCMDC-141924] |  |  |  | 7.86 | 1.73 | 0 (0: NO)
27 | Nc1nc(N)c2cc(NC(=O)c3ccc(Cl)c(Cl)c3)ccc2n1 [TCMDC-141982] |  |  |  | 2.14 | 1.59 | 0 (0: NO)
28 | Cl.OC(CNCCCCCCNCC(O)c1ccc(Cl)c(Cl)c1)c1ccc(Cl)c(Cl)c1 (stereo not drawn) [TCMDC-141987] |  |  |  | 4.27 | 0.9 | 0 (0: NO)
29 | Cl.N=C1C=C(N)C(=O)c2ccccc21 [TCMDC-141992] |  |  |  | 0.52 | 11.9 | 0 (0: NO)
30 | CCn1c2ccccc2c2cc(C=NN=c3cc(C)[nH]c4ccccc34)ccc21 [TCMDC-142186] |  |  |  | 5.82 | 4.15 | 0 (0: NO)
31 | CCOc1ccc2c(=NN=Cc3cc(OC)c(OC)cc3OC)cc(C)[nH]c2c1 [TCMDC-142207] |  |  |  | 12.17 | 1.22 | 0 (0: NO)
32 | Cc1c(N=O)cc(C(C)(C)C)c(O)c1C(=O)Nc1ccc([N+](=O)[O-])cc1Cl [TCMDC-142233] |  |  |  | 1.78 | 1.17 | 0 (0: NO)
33 | CN(C)CCN1CCN(CCCN2c3ccccc3Sc3ccc(C(F)(F)F)cc32)CC1.Cl [TCMDC-142257] |  |  |  | 77.62 | 5.25 | 1 (1: YES)
